Our source for the solubility (mole fraction) values is BigSolDB 2.1.

One may read the solubility (mole fraction) as the moles of solute divided by all moles in the saturated solution. Turning to `CC(C)CC(N)C(=O)O` (racemic), the solubility (mole fraction) is, setting by setting: (in DMF, 278.15 K) 0.00011; (in DMF, 283.15 K) 0.00012; (in DMF, 288.15 K) 0.00014; (in DMF, 293.15 K) 0.00015; (in DMF, 298.15 K) 0.00017; (in DMF, 303.15 K) 0.00018. The compound also returned a solubility (mole fraction) (in DMF, 308.15 K) of 0.0002; a solubility (mole fraction) (in DMF, 313.15 K) of 0.00021; a solubility (mole fraction) (in DMF, 318.15 K) of 0.00023; a solubility (mole fraction) (in water, 278.15 K) of 0.0011; a solubility (mole fraction) (in water, 283.15 K) of 0.00115; a solubility (mole fraction) (in water, 288.15 K) of 0.00124. Moreover, the solubility (mole fraction) runs as follows: (in water, 293.15 K) 0.00128; (in water, 298.15 K) 0.00135; (in water, 303.15 K) 0.00144; (in water, 308.15 K) 0.00155; (in water, 313.15 K) 0.00164; (in water, 318.15 K) 0.00178.
`CC[C@H](C)[C@H](N)C(=O)O` (racemic): the solubility (mole fraction) is, setting by setting: (in DMF, 278.15 K) 0.00023; (in DMF, 283.15 K) 0.00024; (in DMF, 288.15 K) 0.00025; (in DMF, 293.15 K) 0.00026; (in DMF, 298.15 K) 0.00027; (in DMF, 303.15 K) 0.00028. In addition, the solubility (mole fraction) reads like this: (in DMF, 308.15 K) 0.00029; (in DMF, 313.15 K) 0.0003; (in DMF, 318.15 K) 0.00031; (in water, 278.15 K) 0.0025; (in water, 283.15 K) 0.00269; (in water, 288.15 K) 0.0027. The solubility (mole fraction) by setting is: (in water, 293.15 K) 0.0029; (in water, 298.15 K) 0.003; (in water, 303.15 K) 0.0032; (in water, 308.15 K) 0.0034; (in water, 313.15 K) 0.0036; (in water, 318.15 K) 0.0038.
